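Exposure lasted 48 hours, with cells grown in 96-well plates and compounds tested at five concentrations. At the TGI there is no net growth.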
What was measured:
Assay in all cases: inhibition of tumour cell growth, NCI panel, 48 h
[1] = tested on: 786-0 renal
[2] = tested on: A498 renal
[3] = tested on: A549 NSCLC
[4] = tested on: ACHN renal
[5] = tested on: BT-549 breast
[6] = tested on: CCRF-CEM leukemia
[7] = tested on: COLO 205 colon
[8] = tested on: DU-145 prostate
[9] = tested on: EKVX NSCLC
[10] = tested on: HCC-2998 colon
[11] = tested on: HCT-116 colon
[12] = tested on: HCT-15 colon
[13] = tested on: HL-60(TB) leukemia
[14] = tested on: HOP-62 NSCLC
[15] = tested on: HS 578T breast
[16] = tested on: HT29 colon
[17] = tested on: K-562 leukemia
[18] = tested on: KM12 colon
[19] = tested on: LOX IMVI melanoma
[20] = tested on: M14 melanoma
[21] = tested on: MALME-3M melanoma
[22] = tested on: MCF7 breast
[23] = tested on: MDA-MB-231 breast
[24] = tested on: MDA-MB-435
[25] = tested on: MDA-N
[26] = tested on: MOLT-4 leukemia
[27] = tested on: NCI-H226 lung
[28] = tested on: NCI-H23 lung
[29] = tested on: NCI-H460 lung
[30] = tested on: NCI-H522 lung
[31] = tested on: NCI/ADR-RES ovarian
[32] = tested on: OVCAR-3 ovarian
[33] = tested on: OVCAR-4 ovarian
[34] = tested on: OVCAR-5 ovarian
[35] = tested on: OVCAR-8 ovarian
[36] = tested on: PC-3 prostate
[37] = tested on: RPMI-8226 leukemia
[38] = tested on: SF-268 CNS
[39] = tested on: SF-295 CNS
[40] = tested on: SF-539 CNS
[41] = tested on: SK-MEL-2 melanoma
[42] = tested on: SK-MEL-28 melanoma
[43] = tested on: SN12C renal
[44] = tested on: SNB-19 CNS
[45] = tested on: SNB-75 CNS
[46] = tested on: SR leukemia
[47] = tested on: SW-620 colon
[48] = tested on: T-47D breast
[49] = tested on: TK-10 renal
[50] = tested on: U251 CNS
[51] = tested on: UACC-257 melanoma
[52] = tested on: UO-31 renal
[53] = tested on: CAKI-1 renal
[54] = tested on: HOP-92 NSCLC
[55] = tested on: IGROV1 ovarian
[56] = tested on: RXF 393 renal
[57] = tested on: SK-OV-3 ovarian
[58] = tested on: UACC-62 melanoma

O=C(c1ccccc1)N1N=C(C(F)(F)F)CC1(O)C(F)(F)F (stereo not drawn)
TGI [1]: > 100 µM
TGI [2]: > 100 µM
TGI [3]: > 100 µM
TGI [4]: > 100 µM
TGI [5]: > 100 µM
TGI [6]: > 100 µM
TGI [7]: > 100 µM
TGI [8]: > 100 µM
TGI [9]: > 100 µM
TGI [10]: > 100 µM
TGI [11]: > 100 µM
TGI [12]: > 100 µM
TGI [13]: > 100 µM
TGI [14]: > 100 µM
TGI [15]: > 100 µM
TGI [16]: > 100 µM
TGI [17]: > 100 µM
TGI [18]: > 100 µM
TGI [19]: > 100 µM
TGI [20]: > 100 µM
TGI [21]: > 100 µM
TGI [22]: > 100 µM
TGI [23]: > 100 µM
TGI [24]: > 100 µM
TGI [25]: > 100 µM
TGI [26]: > 100 µM
TGI [27]: > 100 µM
TGI [28]: > 100 µM
TGI [29]: > 100 µM
TGI [30]: > 100 µM
TGI [31]: > 100 µM
TGI [32]: > 100 µM
TGI [33]: > 100 µM
TGI [34]: > 100 µM
TGI [35]: > 100 µM
TGI [36]: > 100 µM
TGI [37]: > 100 µM
TGI [38]: > 100 µM
TGI [39]: > 100 µM
TGI [40]: > 100 µM
TGI [41]: > 100 µM
TGI [42]: > 100 µM
TGI [43]: > 100 µM
TGI [44]: > 100 µM
TGI [45]: > 100 µM
TGI [46]: > 100 µM
TGI [47]: > 100 µM
TGI [48]: > 100 µM
TGI [49]: > 100 µM
TGI [50]: > 100 µM
TGI [51]: > 100 µM
TGI [52]: > 100 µM

Cc1c(CNc2ccc(Cl)c(Cl)c2Cl)cnc2nc(N)nc(N)c12
TGI [1]: > 50 µM
TGI [2]: > 100 µM
TGI [3]: > 41.3 µM
TGI [4]: > 48.8 µM
TGI [5]: 50.8 µM
TGI [53]: > 100 µM
TGI [6]: 6.55 µM
TGI [7]: 33.8 µM
TGI [9]: > 69 µM
TGI [10]: > 100 µM
TGI [11]: 1.55 µM
TGI [12]: > 100 µM
TGI [13]: 15.3 µM
TGI [14]: > 43.5 µM
TGI [54]: > 62.8 µM
TGI [15]: 65.6 µM
TGI [16]: > 53.9 µM
TGI [55]: > 49.3 µM
TGI [17]: 5.14 µM
TGI [18]: > 100 µM
TGI [19]: 13.6 µM
TGI [20]: > 100 µM
TGI [21]: > 100 µM
TGI [22]: > 46.7 µM
TGI [24]: > 48.1 µM
TGI [25]: > 32 µM
TGI [26]: 17.6 µM
TGI [27]: > 100 µM
TGI [28]: > 49.3 µM
TGI [29]: > 48.9 µM
TGI [30]: > 45.2 µM
TGI [31]: > 100 µM
TGI [32]: > 51.3 µM
TGI [33]: 31.1 µM
TGI [34]: > 50.4 µM
TGI [35]: 1.41 µM
TGI [36]: > 49 µM
TGI [37]: 49 µM
TGI [56]: > 55.5 µM
TGI [38]: > 45.5 µM
TGI [39]: 3.16 µM
TGI [40]: 12.2 µM
TGI [41]: > 90 µM
TGI [42]: 31.7 µM
TGI [57]: > 52.4 µM
TGI [43]: > 100 µM
TGI [44]: > 59.9 µM
TGI [45]: 24.3 µM
TGI [46]: > 57.9 µM
TGI [47]: > 70.1 µM
TGI [48]: 24.9 µM
TGI [49]: 48.3 µM
TGI [50]: > 46.5 µM
TGI [51]: > 55.4 µM
TGI [58]: 15.8 µM
TGI [52]: > 100 µM

From PubChem BioAssay (NCI)
